Measured values published in US20050229276A1, “Method of producing cyclamen root tuber and method of proliferating cyclamen using the same” (Tokyo University of Agricultural, priority 2002, published 2005).

System: cyclamen root tuber
Test: Germination and rooting of cut-off root tubers in solid media
Type: in vivo
Parameters: Germination rate / Rooting rate: unit not given here
Conditions: NAA 0.05 mg/l
Protocol: The cyclamen root tuber obtained was cut off from the parent body and planted in an experimental plot prepared by adding 30 to 90 g/l of sucrose, NAA and BA to the ⅓ MS medium as shown in Table 4.6 g/l of agar was added to the medium which was then sterilized in an autoclave to prepare a solid medium having a pH of 7.0. The culture test tube was left under illumination for 12 hours a day and in the dark for 12 hours. As a result, the root tubers germinated and rooted while enlarging.

[1] = BA 0.05 mg/l (second 0.05 block, r16), sucrose 30 g/l, 60-th day
[2] = BA 0.05 mg/l (second 0.05 block, r16), sucrose 30 g/l, 97-th day
[3] = BA 0.05 mg/l (second 0.05 block, r16), sucrose 30 g/l, 127-th day
[4] = BA 0.05 mg/l (second 0.05 block, r17), sucrose 50 g/l, 60-th day
[5] = BA 0.05 mg/l (second 0.05 block, r17), sucrose 50 g/l, 97-th day
[6] = BA 0.05 mg/l (second 0.05 block, r17), sucrose 50 g/l, 127-th day
[7] = BA 0.05 mg/l (second 0.05 block, r18), sucrose 70 g/l, 60-th day
[8] = BA 0.05 mg/l (second 0.05 block, r18), sucrose 70 g/l, 97-th day
[9] = BA 0.05 mg/l (second 0.05 block, r18), sucrose 70 g/l, 127-th day
[10] = BA 0.05 mg/l (second 0.05 block, r19), sucrose 90 g/l, 60-th day
[11] = BA 0.05 mg/l (second 0.05 block, r19), sucrose 90 g/l, 97-th day
[12] = BA 0.05 mg/l (second 0.05 block, r19), sucrose 90 g/l, 127-th day
[13] = BA 0.05 mg/l, sucrose 30 g/l, 60-th day
[14] = BA 0.05 mg/l, sucrose 30 g/l, 97-th day
[15] = BA 0.05 mg/l, sucrose 30 g/l, 127-th day
[16] = BA 0.05 mg/l, sucrose 50 g/l, 60-th day
[17] = BA 0.05 mg/l, sucrose 50 g/l, 97-th day
[18] = BA 0.05 mg/l, sucrose 50 g/l, 127-th day
[19] = BA 0.05 mg/l, sucrose 70 g/l, 60-th day
[20] = BA 0.05 mg/l, sucrose 70 g/l, 97-th day
[21] = BA 0.05 mg/l, sucrose 70 g/l, 127-th day
[22] = BA 0.05 mg/l, sucrose 90 g/l, 60-th day
[23] = BA 0.05 mg/l, sucrose 90 g/l, 97-th day
[24] = BA 0.05 mg/l, sucrose 90 g/l, 127-th day
[25] = BA 0.1 mg/l, sucrose 30 g/l, 60-th day
[26] = BA 0.1 mg/l, sucrose 30 g/l, 97-th day
[27] = BA 0.1 mg/l, sucrose 30 g/l, 127-th day
[28] = BA 0.1 mg/l, sucrose 50 g/l, 60-th day
[29] = BA 0.1 mg/l, sucrose 50 g/l, 97-th day
[30] = BA 0.1 mg/l, sucrose 50 g/l, 127-th day
[31] = BA 0.1 mg/l, sucrose 70 g/l, 60-th day
[32] = BA 0.1 mg/l, sucrose 70 g/l, 97-th day
[33] = BA 0.1 mg/l, sucrose 70 g/l, 127-th day
[34] = BA 0.1 mg/l, sucrose 90 g/l, 60-th day
[35] = BA 0.1 mg/l, sucrose 90 g/l, 97-th day
[36] = BA 0.1 mg/l, sucrose 90 g/l, 127-th day
[37] = BA 1.0 mg/l, sucrose 30 g/l, 60-th day
[38] = BA 1.0 mg/l, sucrose 30 g/l, 97-th day
[39] = BA 1.0 mg/l, sucrose 30 g/l, 127-th day
[40] = BA 1.0 mg/l, sucrose 50 g/l, 60-th day
[41] = BA 1.0 mg/l, sucrose 50 g/l, 97-th day
[42] = BA 1.0 mg/l, sucrose 50 g/l, 127-th day
[43] = BA 1.0 mg/l, sucrose 70 g/l, 60-th day
[44] = BA 1.0 mg/l, sucrose 70 g/l, 97-th day
[45] = BA 1.0 mg/l, sucrose 70 g/l, 127-th day
[46] = BA 1.0 mg/l, sucrose 90 g/l, 60-th day
[47] = BA 1.0 mg/l, sucrose 90 g/l, 97-th day
[48] = BA 1.0 mg/l, sucrose 90 g/l, 127-th day

c1ccc(CNc2ncnc3[nH]cnc23)cc1 [BA, benzylaminopurine]
Enlarging ratio [1]: 3.23 | Germination rate [1]: 40 | Rooting rate [1]: 20 | Enlarging ratio [2]: 3.97 | Germination rate [2]: 40 | Rooting rate [2]: 40 | Enlarging ratio [3]: 4.23 | Germination rate [3]: 40 | Rooting rate [3]: 40 | Enlarging ratio [4]: 2.52 | Germination rate [4]: 40 | Rooting rate [4]: 0 | Enlarging ratio [5]: 2.85 | Germination rate [5]: 60 | Rooting rate [5]: 0 | Enlarging ratio [6]: 3.25 | Germination rate [6]: 60 | Rooting rate [6]: 20 | Germination rate [7]: 20 | Rooting rate [7]: 20 | Germination rate [8]: 40 | Rooting rate [8]: 20 | Germination rate [9]: 40 | Rooting rate [9]: 20 | Enlarging ratio [10]: 2.67 | Germination rate [10]: 0 | Rooting rate [10]: 20 | Enlarging ratio [11]: 4.98 | Germination rate [11]: 60 | Rooting rate [11]: 20 | Enlarging ratio [12]: 5.78 | Germination rate [12]: 60 | Rooting rate [12]: 20 | Enlarging ratio [13]: 2.17 | Germination rate [13]: 20 | Rooting rate [13]: 40 | Enlarging ratio [14]: 2.41 | Germination rate [14]: 80 | Rooting rate [14]: 40 | Enlarging ratio [15]: 2.47 | Germination rate [15]: 80 | Rooting rate [15]: 40 | Enlarging ratio [16]: 2.83 | Germination rate [16]: 20 | Rooting rate [16]: 20 | Enlarging ratio [17]: 3.43 | Germination rate [17]: 60 | Rooting rate [17]: 80 | Enlarging ratio [18]: 4.23 | Germination rate [18]: 60 | Rooting rate [18]: 80 | Germination rate [19]: 40 | Rooting rate [19]: 0 | Germination rate [20]: 40 | Rooting rate [20]: 60 | Germination rate [21]: 40 | Rooting rate [21]: 60 | Enlarging ratio [22]: 1.93 | Germination rate [22]: 40 | Rooting rate [22]: 20 | Enlarging ratio [23]: 2.11 | Germination rate [23]: 40 | Rooting rate [23]: 60 | Enlarging ratio [24]: 2.11 | Germination rate [24]: 40 | Rooting rate [24]: 60 | Enlarging ratio [25]: 2.05 | Germination rate [25]: 40 | Rooting rate [25]: 40 | Enlarging ratio [26]: 2.35 | Germination rate [26]: 60 | Rooting rate [26]: 80 | Enlarging ratio [27]: 2.35 | Germination rate [27]: 60 | Rooting rate [27]: 80 | Enlarging ratio [28]: 2.40 | Germination rate [28]: 20 | Rooting rate [28]: 40 | Enlarging ratio [29]: 2.90 | Germination rate [29]: 40 | Rooting rate [29]: 40 | Enlarging ratio [30]: 3.10 | Germination rate [30]: 60 | Rooting rate [30]: 60 | Enlarging ratio [31]: 1.40 | Germination rate [31]: 20 | Rooting rate [31]: 0 | Enlarging ratio [32]: 2.47 | Germination rate [32]: 40 | Rooting rate [32]: 0 | Enlarging ratio [33]: 2.73 | Germination rate [33]: 40 | Rooting rate [33]: 20 | Enlarging ratio [34]: 2.68 | Germination rate [34]: 0 | Rooting rate [34]: 40 | Enlarging ratio [35]: 3.28 | Germination rate [35]: 0 | Rooting rate [35]: 40 | Enlarging ratio [36]: 3.28 | Germination rate [36]: 20 | Rooting rate [36]: 40 | Enlarging ratio [37]: 2.25 | Germination rate [37]: 0 | Rooting rate [37]: 0 | Enlarging ratio [38]: 3.50 | Germination rate [38]: 40 | Rooting rate [38]: 0 | Enlarging ratio [39]: 3.95 | Germination rate [39]: 40 | Rooting rate [39]: 0 | Enlarging ratio [40]: 2.27 | Germination rate [40]: 20 | Rooting rate [40]: 0 | Enlarging ratio [41]: 3.18 | Germination rate [41]: 40 | Rooting rate [41]: 20 | Enlarging ratio [42]: 4.02 | Germination rate [42]: 40 | Rooting rate [42]: 20 | Enlarging ratio [43]: 2.25 | Germination rate [43]: 0 | Rooting rate [43]: 20 | Enlarging ratio [44]: 4.03 | Germination rate [44]: 20 | Rooting rate [44]: 40 | Enlarging ratio [45]: 4.81 | Germination rate [45]: 20 | Rooting rate [45]: 60 | Enlarging ratio [46]: 1.84 | Germination rate [46]: 40 | Rooting rate [46]: 20 | Enlarging ratio [47]: 2.11 | Germination rate [47]: 60 | Rooting rate [47]: 40 | Enlarging ratio [48]: 2.47 | Germination rate [48]: 60 | Rooting rate [48]: 40
